Data from PubChem BioAssay (NCI).
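Compound exposure: 48 hours, 5 concentrations, 96-well plates. Definition used: TGI = concentration required for complete inhibition of growth.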

Key:
Experiment in all cases: NCI-60 cell line screen, 48 h
786-0 renal = test system: 786-0 renal
A498 renal = test system: A498 renal
A549 NSCLC = test system: A549 NSCLC
CAKI-1 renal = test system: CAKI-1 renal
DU-145 prostate = test system: DU-145 prostate
HCT-116 colon = test system: HCT-116 colon
HOP-92 NSCLC = test system: HOP-92 NSCLC
K-562 leukemia = test system: K-562 leukemia
LOX IMVI melanoma = test system: LOX IMVI melanoma
MCF7 breast = test system: MCF7 breast
MDA-MB-435 = test system: MDA-MB-435
MOLT-4 leukemia = test system: MOLT-4 leukemia
NCI/ADR-RES ovarian = test system: NCI/ADR-RES ovarian
PC-3 prostate = test system: PC-3 prostate
RPMI-8226 leukemia = test system: RPMI-8226 leukemia
SN12C renal = test system: SN12C renal
UACC-257 melanoma = test system: UACC-257 melanoma
UO-31 renal = test system: UO-31 renal
SR leukemia = test system: SR leukemia
HS 578T breast = test system: HS 578T breast

CCN(CC)CCCNc1nc(=O)[nH]c(C)c1C(=O)Nc1c2ccccc2nc2ccccc12 showed a TGI (786-0 renal) of 32.6 µM, a TGI (A498 renal) of 31.8 µM and a TGI (A549 NSCLC) of 44.2 µM. For the same molecule, the TGI (CAKI-1 renal) was 56 µM, the TGI (DU-145 prostate) was greater than 100 µM and the TGI (HCT-116 colon) was 21.7 µM. The TGI (HOP-92 NSCLC) was 13.3 µM, the TGI (K-562 leukemia) was greater than 100 µM and the TGI (LOX IMVI melanoma) was 45.4 µM. It also gave a TGI (MCF7 breast) greater than 100 µM, a TGI (MDA-MB-435) greater than 100 µM and a TGI (MOLT-4 leukemia) greater than 100 µM. For the same molecule, the TGI (NCI/ADR-RES ovarian) was 45.7 µM, the TGI (PC-3 prostate) was greater than 100 µM and the TGI (RPMI-8226 leukemia) was 47.4 µM. The TGI (SN12C renal) was greater than 100 µM, the TGI (UACC-257 melanoma) was 54.5 µM and the TGI (UO-31 renal) was 32.3 µM.
Work on CCOP(=O)(OCC)C(N)Cc1ccc(OC)c(OC)c1 (centres undefined) yielded a TGI (786-0 renal) greater than 100 µM, a TGI (A498 renal) greater than 100 µM and a TGI (A549 NSCLC) greater than 100 µM. For the same molecule, the TGI (CAKI-1 renal) was greater than 100 µM, the TGI (DU-145 prostate) was greater than 100 µM and the TGI (HCT-116 colon) was greater than 100 µM. The TGI (HOP-92 NSCLC) was greater than 100 µM, the TGI (K-562 leukemia) was greater than 100 µM and the TGI (MCF7 breast) was greater than 100 µM. For the same molecule, the TGI (MDA-MB-435) was greater than 100 µM, the TGI (MOLT-4 leukemia) was greater than 100 µM and the TGI (NCI/ADR-RES ovarian) was greater than 100 µM. It also gave a TGI (PC-3 prostate) greater than 100 µM, a TGI (RPMI-8226 leukemia) greater than 100 µM and a TGI (SN12C renal) greater than 100 µM. For the same molecule, the TGI (SR leukemia) was greater than 100 µM, the TGI (UACC-257 melanoma) was greater than 100 µM and the TGI (UO-31 renal) was greater than 100 µM.
O=c1oc2ccccc2c(O)c1C1c2c(c3ccccc3oc2=O)Oc2c1c(=O)oc1ccccc21 was tested, and the TGI (786-0 renal) was greater than 100 µM, the TGI (A498 renal) was greater than 100 µM and the TGI (CAKI-1 renal) was 69.3 µM. For the same molecule, the TGI (DU-145 prostate) was greater than 100 µM, the TGI (HCT-116 colon) was greater than 100 µM and the TGI (HOP-92 NSCLC) was greater than 100 µM. The TGI (HS 578T breast) was greater than 100 µM, the TGI (K-562 leukemia) was greater than 100 µM and the TGI (LOX IMVI melanoma) was greater than 100 µM. It also gave a TGI (MDA-MB-435) of 60 µM, a TGI (MOLT-4 leukemia) greater than 100 µM and a TGI (NCI/ADR-RES ovarian) greater than 100 µM. It also gave a TGI (PC-3 prostate) greater than 100 µM, a TGI (RPMI-8226 leukemia) of 87.9 µM and a TGI (SN12C renal) of 73.3 µM. The TGI (UACC-257 melanoma) was greater than 100 µM and the TGI (UO-31 renal) was 35.6 µM.
Molecule CC(=O)OC(C)c1cc2c(s1)C(=O)c1scc(C(C)OC(C)=O)c1C2=O (centres undefined) has a TGI (786-0 renal) of 0.461 µM, a TGI (A498 renal) of 1.26 µM and a TGI (A549 NSCLC) of 4.06 µM. The TGI (CAKI-1 renal) was 5.04 µM, the TGI (DU-145 prostate) was 0.317 µM and the TGI (HCT-116 colon) was 0.838 µM. The TGI (HOP-92 NSCLC) was 4.58 µM, the TGI (HS 578T breast) was 1.41 µM and the TGI (K-562 leukemia) was greater than 100 µM. It also gave a TGI (LOX IMVI melanoma) greater than 100 µM, a TGI (MCF7 breast) of 0.605 µM and a TGI (MDA-MB-435) of 0.0815 µM. For the same molecule, the TGI (NCI/ADR-RES ovarian) was 0.802 µM, the TGI (UACC-257 melanoma) was 0.463 µM and the TGI (UO-31 renal) was 0.451 µM.
In the case of NCCCCN(CCCN)C(=O)c1ccccc1, the TGI (786-0 renal) is reported as greater than 100 µM, the TGI (A498 renal) is reported as greater than 100 µM and the TGI (A549 NSCLC) is reported as greater than 100 µM. The TGI (CAKI-1 renal) was greater than 100 µM, the TGI (DU-145 prostate) was greater than 100 µM and the TGI (HCT-116 colon) was greater than 100 µM. For the same molecule, the TGI (HOP-92 NSCLC) was greater than 100 µM, the TGI (HS 578T breast) was greater than 100 µM and the TGI (K-562 leukemia) was greater than 100 µM. The TGI (MCF7 breast) was greater than 100 µM, the TGI (MDA-MB-435) was greater than 100 µM and the TGI (MOLT-4 leukemia) was greater than 100 µM. The TGI (NCI/ADR-RES ovarian) was greater than 100 µM, the TGI (PC-3 prostate) was greater than 100 µM and the TGI (RPMI-8226 leukemia) was greater than 100 µM. For the same molecule, the TGI (SN12C renal) was greater than 100 µM, the TGI (UACC-257 melanoma) was greater than 100 µM and the TGI (UO-31 renal) was greater than 100 µM.
O=C1C(C(c2ccccc2)N2CCOCC2)=C(O)C(c2ccccc2)N1c1ccccc1 (centres undefined) gave a TGI (786-0 renal) greater than 10 µM, a TGI (A498 renal) greater than 10 µM and a TGI (A549 NSCLC) greater than 10 µM. The TGI (CAKI-1 renal) was greater than 10 µM, the TGI (DU-145 prostate) was greater than 10 µM and the TGI (HCT-116 colon) was greater than 10 µM. For the same molecule, the TGI (HS 578T breast) was greater than 10 µM, the TGI (K-562 leukemia) was greater than 10 µM and the TGI (LOX IMVI melanoma) was greater than 10 µM. The TGI (MCF7 breast) was greater than 10 µM, the TGI (MDA-MB-435) was greater than 10 µM and the TGI (MOLT-4 leukemia) was greater than 10 µM. It also gave a TGI (NCI/ADR-RES ovarian) greater than 10 µM, a TGI (PC-3 prostate) greater than 10 µM and a TGI (RPMI-8226 leukemia) greater than 10 µM. For the same molecule, the TGI (SN12C renal) was greater than 10 µM, the TGI (UACC-257 melanoma) was greater than 10 µM and the TGI (UO-31 renal) was greater than 10 µM.
